Target: T1, human orexin type 2 receptor (Homo sapiens, UniProt O43614)
T1 construct: human orexin type 2 receptor cDNA was inserted into pcDNA3.1(+) plasmid vector (Invitrogen); expressed in transfected cells
T1 sequence (O43614 1-444): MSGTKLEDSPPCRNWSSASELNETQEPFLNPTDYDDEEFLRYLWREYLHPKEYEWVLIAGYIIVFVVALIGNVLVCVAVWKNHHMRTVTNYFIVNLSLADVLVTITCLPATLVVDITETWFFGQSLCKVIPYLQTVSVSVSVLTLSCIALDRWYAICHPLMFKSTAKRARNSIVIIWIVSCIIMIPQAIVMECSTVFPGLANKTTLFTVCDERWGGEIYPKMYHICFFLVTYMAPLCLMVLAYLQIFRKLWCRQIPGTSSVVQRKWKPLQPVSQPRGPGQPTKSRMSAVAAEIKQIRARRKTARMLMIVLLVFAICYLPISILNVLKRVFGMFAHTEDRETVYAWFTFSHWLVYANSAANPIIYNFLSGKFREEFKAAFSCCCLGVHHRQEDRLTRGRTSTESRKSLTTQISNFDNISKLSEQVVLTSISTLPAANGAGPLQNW
Assay: Measurement of orexin type 2 receptor agonist activity (calcium fluorescence, CHO cells expressing hOX2R)
Assay type: cell-based
Settings: test compound 3 μM; CHO cells expressing human OX2 receptor; DMSO = 0%, orexin A (human) = 100%
In short: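 CHO-dhfr cells stably expressing hOX2R, loaded with Fluo-4 AM in HBSS/20 mM HEPES/0.1% BSA with probenecid, then given test compound. Calcium fluorescence was read for about 2 min 40 sec. Activity (%) was scaled between DMSO (0%) and 10 nM final human orexin A (100%).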

OX2R agonist activity (3 μM, %)	Structure (SMILES)
93%	CS(=O)(=O)N[C@H]1CCN(C(=O)N2CCC2)[C@H]1Cc1cccc(-c2cc(F)cc(F)c2)c1 [Example 345, N-((2S,3S)-1-(azetidin-1-ylcarbonyl)-2-((3′,5′-difluorobiphenyl-3-yl)methyl)pyrrolidin-3-yl)methanesulfonamide]
107%	CC(C)C(=O)N1CC[C@H](NS(C)(=O)=O)[C@@H]1Cc1cccc(-c2cc(F)cc(F)c2)c1F [Example 402, N-((2S,3S)-1-isobutyryl-2-((2,3′,5′-trifluorobiphenyl-3-yl)methyl)pyrrolidin-3-yl)methanesulfonamide]
104%	CC(C)C(=O)N1CC[C@H](NS(C)(=O)=O)[C@@H]1Cc1cccc(-c2cccc(F)c2)c1F (relative stereo) [Example 294, N-(cis-2-((2,3′-difluorobiphenyl-3-yl)methyl)-1-isobutyrylpyrrolidin-3-yl)methanesulfonamide]
110%	CC(C)(O)C(=O)N1CC[C@H](NS(=O)(=O)CF)[C@@H]1Cc1cccc(-c2cccc(F)c2)c1F [Example 417, N-((2S,3S)-2-((2,3′-difluorobiphenyl-3-yl)methyl)-1-(2-hydroxy-2-methylpropanoyl)pyrrolidin-3-yl)-1-fluoromethanesulfonamide]
103%	CC(C)(CO)C(=O)N1CC[C@H](NS(C)(=O)=O)[C@@H]1Cc1cccc(-c2cc(F)cc(F)c2)c1F [Example 457, N-{(2S,3S)-1-(3-hydroxy-2,2-dimethylpropanoyl)-2-[(2,3′,5′-trifluoro[1,1′-biphenyl]-3-yl)methyl]pyrrolidin-3-yl}methanesulfonamide]
94%	CS(=O)(=O)N[C@H]1CCN(C(=O)C2CCC2)[C@H]1Cc1ccc(F)c(-c2cccc(F)c2)c1 (relative stereo) [Example 304, N-(cis-1-(cyclobutylcarbonyl)-2-((3′,6-difluorobiphenyl-3-yl)methyl)pyrrolidin-3-yl)methanesulfonamide]
109%	CC(C)(O)C(=O)N1CC[C@H](NS(=O)(=O)CF)[C@@H]1Cc1cccc(-c2cc(F)cc(F)c2)c1F [Example 423, 1-fluoro-N-((2S,3S)-1-(2-hydroxy-2-methylpropanoyl)-2-((2,3′,5′-trifluorobiphenyl-3-yl)methyl)pyrrolidin-3-yl)methanesulfonamide]
102%	CS(=O)(=O)N[C@H]1CCN(C(=O)C23CC(C2)C3)[C@H]1Cc1cccc(-c2cc(F)cc(F)c2)c1 [Example 307, N-((2S,3S)-1-(bicyclo[1.1.1]pent-1-ylcarbonyl)-2-((3′,5′-difluorobiphenyl-3-yl)methyl)pyrrolidin-3-yl)methanesulfonamide]
104%	CC(C)(O)C(=O)N1CC[C@H](NS(C)(=O)=O)[C@@H]1Cc1cccc(-c2cc(F)cc(F)c2)c1F [Example 395, N-((2S,3S)-1-(2-hydroxy-2-methylpropanoyl)-2-((2,3′,5′-trifluorobiphenyl-3-yl)methyl)pyrrolidin-3-yl)methanesulfonamide]
101%	CCS(=O)(=O)N[C@H]1CCN(C(=O)C(C)(C)O)[C@H]1Cc1cccc(-c2cccc(F)c2)c1F [Example 488, N-((2S,3S)-2-((2,3′-difluorobiphenyl-3-yl)methyl)-1-(2-hydroxy-2-methylpro-panoyl)pyrrolidin-3-yl)ethanesulfona-mide]

Second part, the compound before the results:

Structure (SMILES)	OX2R agonist activity (3 μM, %)
CS(=O)(=O)N[C@H]1CCN(C(=O)C2CCO2)[C@H]1Cc1cccc(-c2cccc(F)c2)c1 (stereo partly drawn) [Example 328, N-((2S,3S)-2-((3′-fluorobiphenyl-3-yl)methyl)-1-(oxetan-2-ylcarbonyl)pyrrolidin-3-yl)methanesulfonamide]	104%
CS(=O)(=O)N[C@H]1CCN(C(=O)C2CCC2)[C@H]1Cc1cccc(-c2cccc(F)c2)c1 [Example 262, N-((2S,3S)-1-(cyclobutylcarbonyl)-2-((3′-fluorobiphenyl-3-yl)methyl)pyrrolidin-3-yl)methanesulfonamide]	101%
CS(=O)(=O)N[C@H]1CCCN(C(=O)OC2CC2)[C@H]1Cc1cccc(-c2ccccc2)c1 (relative stereo) [Example 126, cyclopropyl cis-2-(biphenyl-3-ylmethyl)-3-((methylsulfonyl)amino)piperidine-1-carboxylate]	90%
COC(=O)N1CC[C@H](NS(C)(=O)=O)[C@@H]1Cc1cccc(-c2ccccc2)c1 (relative stereo) [Example 61, methyl cis-2-(biphenyl-3-ylmethyl)-3-((methylsulfonyl)amino)pyrrolidine-1-carboxylate]	74%
CCNC(=O)N1CCC[C@H](NS(C)(=O)=O)[C@@H]1Cc1ccc(Oc2ccccc2)cc1 (relative stereo) [Example 63, cis-N-ethyl-3-((methylsulfonyl)amino)-2-(4-phenoxybenzyl)piperidine-1-carboxamide]	24%
CCS(=O)(=O)N[C@H]1CCN(C(=O)C23CC(C2)C3)[C@H]1Cc1csc(-c2cc(F)cc(F)c2)n1 (relative stereo) [Example 318, N-(cis-1-(bicyclo[1.1.1]pent-1-ylcarbonyl)-2-((2-(3,5-difluorophenyl)-1,3-thiazol-4-yl)methyl)pyrrolidin-3-yl)ethanesulfonamide]	102%
CC(C)C(=O)N1CCC[C@H](NS(C)(=O)=O)[C@@H]1Cc1cccc(-c2ccccc2)c1 (relative stereo) [Example 95, N-(cis-2-(biphenyl-3-ylmethyl)-1-isobutyrylpiperidin-3-yl)methanesulfonamide]	97%
O=C(N1CCC1)N1CC[C@H](NS(=O)(=O)CF)[C@@H]1Cc1cccc(-c2cccc(F)c2)c1 [Example 459, N-{(2S,3S)-1-(azetidine-1-carbonyl)-2-[(3′-fluoro[1,1′-biphenyl]-3-yl)methyl]pyrrolidin-3-yl}-1-fluoromethanesulfonamide]	93%
CS(=O)(=O)N[C@H]1CCN(C(=O)C2CCC2)[C@H]1Cc1csc(-c2cccc(F)c2F)n1 (relative stereo) [Example 256, N-(cis-1-(cyclobutylcarbonyl)-2-((2-(2,3-difluorophenyl)-1,3-thiazol-4-yl)methyl)pyrrolidin-3-yl)methanesulfonamide]	97%
CS(=O)(=O)N[C@H]1CCN(C(=O)C2CCC2)[C@H]1Cc1csc(-c2ccccc2)n1 (relative stereo) [Example 319, N-(cis-1-(cyclobutylcarbonyl)-2-((2-phenyl-1,3-thiazol-4-yl)methyl)pyrrolidin-3-yl)methanesulfonamide]	101%
CS(=O)(=O)N[C@H]1CCN(C(=O)C2(O)CCC2)[C@H]1Cc1csc(-c2cc(F)cc(F)c2)n1 (relative stereo) [Example 323, N-(cis-2-((2-(3,5-difluorophenyl)-1,3-thiazol-4-yl)methyl)-1-((1-hydroxycyclobutyl)carbonyl)pyrrolidin-3-yl)methanesulfonamide]	109%
CS(=O)(=O)N[C@H]1CCN(C(=O)C2CCC2)[C@H]1Cc1cccc(-c2ccccc2)c1 [Example 261, N-((2S,3S)-2-(biphenyl-3-ylmethyl)-1-(cyclobutylcarbonyl)pyrrolidin-3-yl)methanesulfonamide]	97%
CS(=O)(=O)N[C@H]1CCN(C(=O)N2CCC2)[C@H]1Cc1cccc(-c2cccc(F)c2)c1 [Example 313, N-((2S,3S)-1-(azetidin-1-ylcarbonyl)-2-((3′-fluorobiphenyl-3-yl)methyl)pyrrolidin-3-yl)methanesulfonamide]	100%
COC(=O)N1CCC[C@H](NS(C)(=O)=O)[C@@H]1Cc1cccc(-c2ccc3c(cnn3C)c2)c1 (relative stereo) [Example 53, methyl cis-2-(3-(1-methyl-1H-indazol-5-yl)benzyl)-3-((methylsulfonyl)amino)piperidine-1-carboxylate]	72%
CC(C)OC(=O)N1CCC[C@H](NS(=O)(=O)C2CC2)[C@@H]1Cc1cccc(-c2ccccc2)n1 (relative stereo) [Example 178, isopropyl cis-3-((cyclopropylsulfonyl)amino)-2-((6-phenylpyridin-2-yl)methyl)piperidine-1-carboxylate]	99%
CS(=O)(=O)N[C@H]1CCN(C(=O)C2(O)CCC2)[C@H]1Cc1cccc(-c2cccc(F)c2)n1 (relative stereo) [Example 338, N-(cis-2-((6-(3-fluorophenyl)pyridin-2-yl)methyl)-1-((1-hydroxycyclobutyl)carbonyl)pyrrolidin-3-yl)methanesulfonamide]	103%
COC(=O)N1CCC[C@H](NS(C)(=O)=O)[C@@H]1Cc1cccc(-c2ccsc2)c1 (relative stereo) [Example 159, methyl cis-3-((methylsulfonyl)amino)-2-(3-(3-thienyl)benzyl)piperidine-1-carboxylate]	65%
CC(C)OC(=O)N1CCC[C@H](NS(C)(=O)=O)[C@@H]1Cc1cccc(-c2ccccc2)c1 (relative stereo) [Example 50, isopropyl cis-2-(biphenyl-3-ylmethyl)-3-((methylsulfonyl)amino)piperidine-1-carboxylate]	97%

Source: patent publication US20200207734A1, “HETEROCYCLIC COMPOUND AND USE THEREOF” (Takeda Pharmaceutical Company Limited, priority 2017, published 2020)
